Source: US20240299384A1, “METHODS FOR TREATING PULMONARY HYPERTENSION IN PATIENTS WITH LEFT VENTRICULAR ASSIST DEVICE IMPLANTATION” (ACTELION PHARMACEUTICALS LTD, priority 2021, published 2024)

System: patients with PH post-LVAD implantation
Test: Phase 2 study in PH post-LVAD implantation: adverse events (Safety Set)
Format: in vivo
Method: This is a double-blind, placebo-controlled, multicenter, parallel-group Phase 2 study assessing the efficacy and safety of macitentan in PH post-LVAD implantation. Approximately 57 adult patients with PH post-LVAD implantation were randomized (1:1) to receive either macitentan 10 mg, or matching placebo, once daily orally.
• Treatment-emergent AEs up to 30 days after treatment discontinuation. • AEs leading to premature discontinuation of treatment. • Death up to 30 days after treatment discontinuation. • Treatment-emergent SAEs up to 30 days after treatment discontinuation. • Change from Baseline to EOT in vital signs. • Occurrence of liver function test (ALT and/or AST) abnormality (≥3×ULN; ≥3 and <5×ULN; ≥5 and <8×ULN; ≥8×ULN) up to EOT. • Occurrence of ALT and/or AST abnormality ≥3×ULN associated with bilirubin ≥2×ULN up to EOT. • Proportion of patients with treatment-emergent hemoglobin abnormality (<10.0 g/dL, and <8.0 g/dL) as compared to Baseline up to EOT. • Treatment-emergent marked laboratory abnormalities up to EOT.
An AE is any adverse change, i.e., any unfavorable and unintended sign, including an abnormal laboratory finding, symptom, or disease that occurs in a patient. AEs include: • Exacerbation of a pre-existing disease. • Increase in frequency or intensity of a pre-existing episodic disease or medical condition. • Disease or medical condition detected or diagnosed even though it may have been present prior to the start of the treatment. • Continuous persistent disease or symptoms present at treatment start that worsen following the start. • Abnormal assessments, e.g., change on physical examination, ECG findings, if they represent a clinically significant finding that was not present at treatment start or worsened during the course of the treatment. • Laboratory test abnormalities if they represent a clinically significant finding, symptomatic or not, which was not present at treatment start or worsened during the course of the treatment or led to dose reduction, interruption or permanent discontinuation of treatment.
A treatment-emergent AE is any AE temporally associated with the use of treatment (from treatment initiation until 30 days after treatment discontinuation). Overdose, misuse, and abuse of the treatment may be considered an AE.
The intensity of clinical AEs is graded on a three-point scale-mild, moderate, severe. The three categories of intensity are defined as follows: • Mild: The event may be noticeable to the patient. […] Performance of daily activities may be influenced, and intervention may be needed. • Severe: The event may cause noticeable discomfort, and usually interferes with daily activities. The patient may not be able to continue, and treatment or intervention is usually needed.
An SAE is defined by the ICH guidelines as any AE fulfilling at least one of the following criteria: • Fatal. • Life-threatening: refers to an event in which the patient was at risk of death at the time of the event.
Safety Set (SS): The SS includes all patients receiving at least one dose of drug in the treatment period.
A treatment-emergent AE is any AE temporally associated with the use of a treatment. The number and percentage of patients experiencing treatment-emergent AEs and SAEs at least once are tabulated by treatment group and by: • MedDRA SOC and individual preferred term within each SOC, in descending order of incidence. • Frequency of patients with events coded with the same preferred term, in descending order of incidence.

[1] = AEs leading to treatment discontinuation, SS, N = 28
[2] = SMQs for anemia, hypotension, edema/fluid retention, 10 mg once daily, N = 28
[3] = frequently reported AEs, SS, N = 28
[4] = treatment-emergent, 10 mg once daily, N = 28

Structure (SMILES): CCCNS(=O)(=O)Nc1ncnc(OCCOc2ncc(Br)cn2)c1-c1ccc(Br)cc1 [Macitentan, propylsulfamic acid [5-(4-bromo-phenyl)-6-[2-(5-bromo-pyrimidin-2-yloxy)-ethoxy]-pyrimidin-4-yl]-amide]
- Any Treatment-Related Adverse Event Leading to Treatment Discontinuation, number of patients (10 mg once daily, N = 28): 2
- Any Treatment-Related Adverse Event Leading to Treatment Discontinuation, percent of patients (10 mg once daily, N = 28): (7.1) %
- Acute kidney injury, number of patients [1]: 1
- Acute kidney injury, percent of patients [1]: 3.6%
- Anaemia, number of patients [1]: 0
- Blood alkaline phosphatase increased, number of patients [1]: 1
- Blood alkaline phosphatase increased, percent of patients [1]: 3.6%
- Blood and lymphatic system disorders, number of patients [1]: 0
- Blood bilirubin increased, number of patients [1]: 1
- Blood bilirubin increased, percent of patients [1]: 3.6%
- Cardiac disorders, number of patients [1]: 1
- Cardiac disorders, percent of patients [1]: 3.6%
- Cerebral haemorrhage, number of patients [1]: 1
- Cerebral haemorrhage, percent of patients [1]: 3.6%
- General disorders and administration site conditions, number of patients [1]: 1
- General disorders and administration site conditions, percent of patients [1]: 3.6%
- Haemolysis, number of patients [1]: 0
- Haemorrhagic stroke, number of patients [1]: 0
- International normalised ratio increased, number of patients [1]: 1
- International normalised ratio increased, percent of patients [1]: 3.6%
- Investigations, number of patients [1]: 1
- Investigations, percent of patients [1]: 3.6%
- Liver function test increased, number of patients [1]: 1
- Liver function test increased, percent of patients [1]: 3.6%
- Nervous system disorders, number of patients [1]: 1
- Nervous system disorders, percent of patients [1]: 3.6%
- Oedema peripheral, number of patients [1]: 1
- Oedema peripheral, percent of patients [1]: 3.6%
- Renal and urinary disorders, number of patients [1]: 1
- Renal and urinary disorders, percent of patients [1]: 3.6%
- Right ventricular failure, number of patients [1]: 1
- Right ventricular failure, percent of patients [1]: 3.6%
- Any Events of Interest, number of patients [2]: 10
- Any Events of Interest, percent of patients [2]: (35.7) %
- Any Adverse Event Leading to Treatment Discontinuation, number of patients (SS, 10 mg once daily, N = 28): 4
- tolerability in words (early post-LVAD population, 10 mg once daily): well tolerated
- Acute kidney injury, number of patients [3]: 3
- Acute kidney injury, percent of patients [3]: (10.7) %
- Anticoagulation drug level below therapeutic, number of patients [3]: 4
- Anticoagulation drug level below therapeutic, percent of patients [3]: (14.3) %
- Complication associated with device, number of patients [3]: 0
- Cystatin C increased, number of patients [3]: 3
- Cystatin C increased, percent of patients [3]: (10.7) %
- Dehydration, number of patients [3]: 0
- Dizziness, number of patients [3]: 4
- Dizziness, percent of patients [3]: (14.3) %
- Dyspnoea, number of patients [3]: 4
- Dyspnoea, percent of patients [3]: (14.3) %
- Fall, number of patients [3]: 0
- Fatigue, number of patients [3]: 4
- Fatigue, percent of patients [3]: (14.3) %
- Hyperkalaemia, number of patients [3]: 3
- Hyperkalaemia, percent of patients [3]: (10.7) %
- Hypotension, number of patients [3]: 3
- Hypotension, percent of patients [3]: (10.7) %
- N-terminal prohormone brain natriuretic peptide increased, number of patients [3]: 4
- N-terminal prohormone brain natriuretic peptide increased, percent of patients [3]: (14.3) %
- Oedema peripheral, number of patients [3]: 4
- Oedema peripheral, percent of patients [3]: (14.3) %
- Ventricular tachycardia, number of patients [3]: 1
- Ventricular tachycardia, percent of patients [3]: (3.6) %
- Vomiting, number of patients [3]: 2
- Vomiting, percent of patients [3]: (7.1) %
- safety profile in words (post-LVAD implantation patients, 10 mg once daily): favorable safety profile
- Acute kidney injury, number of patients (serious AEs, N = 28): 2
- Acute kidney injury, percent of patients (serious AEs, N = 28): (7.1) %
- Anticoagulation drug level below therapeutic level, number of patients (serious AEs, N = 28): 3
- Anticoagulation drug level below therapeutic level, percent of patients (serious AEs, N = 28): (10.7) %
- Complication associated with device, number of patients (serious AEs, N = 28): 0
- Dehydration, number of patients (serious AEs, N = 28): 0
- Gastrointestinal hemorrhage, number of patients (serious AEs, N = 28): 0
- Pleural effusion, number of patients (serious AEs, N = 28): 2
- Pleural effusion, percent of patients (serious AEs, N = 28): (7.1) %
- Right ventricular failure, number of patients (serious AEs, N = 28): 2
- Right ventricular failure, percent of patients (serious AEs, N = 28): (7.1) %
- Septic shock, number of patients (serious AEs, N = 28): 2
- Septic shock, percent of patients (serious AEs, N = 28): (7.1) %
- Ventricular tachycardia, number of patients (serious AEs, N = 28): 0
- Any Adverse Event With Outcome of Death, number of patients [4]: 1
- Any Adverse Event With Outcome of Death, percent of patients [4]: (3.6) %
- Any Adverse Event, number of patients [4]: 26
- Any Adverse Event, percent of patients [4]: (92.9) %
- Any Serious Adverse Event, number of patients [4]: 16
- Any Serious Adverse Event, percent of patients [4]: (57.1) %
- Any Severe Adverse Event, number of patients [4]: 9
- Any Severe Adverse Event, percent of patients [4]: (32.1) %
- Any Severe Treatment-Related Adverse Event, number of patients [4]: 2
- Any Severe Treatment-Related Adverse Event, percent of patients [4]: (7.1) %
- Any Treatment-Related Adverse Event, number of patients [4]: 6
- Any Treatment-Related Adverse Event, percent of patients [4]: (21.4) %
- Any Treatment-Related Serious Adverse Event, number of patients [4]: 2
- Any Treatment-Related Serious Adverse Event, percent of patients [4]: (7.1) %
